The values that follow come from ChEMBL document CHEMBL1143675, “Triterpenoids from Schisandra rubriflora” (J Nat Prod, 2007).

≈ marks a conversion by molar mass, not a printed value.

Series [1] is described as follows: Cytotoxicity against C8166 cells after 72 hrs by MTT method. Conditions: human. It counts as cell-based. A general note: Formazan colour is commonly taken as a measure of viable cells.
Series [2] has as its system Human immunodeficiency virus 1. Put plainly: Antiviral activity against HIV1 3B in C8166 cells. It counts as functional, organism-based. Conditions: Human immunodeficiency virus 1, 3B.

For `COC(=O)C[C@H]1OC(C)(C)[C@@H]2C[C@H]3O[C@@]12C[C@]12CC[C@]4(C)C(=O)[C@@H](C)[C@@H]5[C@H]6OC(=O)[C@@H](C)[C@H]6O[C@@](O1)(C(=O)[C@H]32)[C@@H]54` [RUBRIFLORIN A], the cytotoxic concentration (CC50) (as a rule, the concentration giving 50% cytotoxicity) at 72 h in series [1] amounted to 89.1 µg/mL (≈ 159 µM). Further, in series [2], the EC50 (usually the concentration at which the effect is half-maximal) is 10 µg/mL (≈ 17.9 µM).

`COC(=O)C[C@H]1OC(C)(C)C2=C1C[C@]13CC[C@]4(C)C(=O)[C@@H](C)[C@@H]5[C@H]6OC(=O)[C@@H](C)[C@H]6O[C@@](O1)(C(=O)C3=CC2=O)[C@@H]54` [RUBRIFLORIN B]: in series [1], it took 100 µg/mL (≈ 181 µM) to reach half-maximal cytotoxicity (CC50 at 72 h). In series [2], this molecule returned a 50% effective concentration (EC50) of 16.2 µg/mL (≈ 29.2 µM).

`CCOC(=O)C[C@H]1OC(C)(C)C2=C1C[C@]13CC[C@]4(C)C(=O)[C@@H](C)[C@@H]5[C@H]6OC(=O)[C@@H](C)[C@H]6O[C@@](O1)(C(=O)C3=CC2=O)[C@@H]54` [RUBRIFLORIN C] came in with a CC50 at 72 h in series [1] of more than 200 µg/mL. In addition, in series [2], the EC50 is 81.3 µg/mL (≈ 143 µM).

In series [1], `Cc1cn([C@H]2C[C@H](N=[N+]=[N-])[C@@H](CO)O2)c(=O)[nH]c1=O` [ZIDOVUDINE] returned a half-maximal cytotoxic concentration (CC50) at 72 h of more than 200 µg/mL. In addition, the concentration giving a half-maximal response (EC50) in series [2] worked out at 0.0043 µg/mL (≈ 0.0161 µM).
